This note sets out measurements from patent publication US20240190880A1 (THE REGENTS OF THE UNIVERSITY OF MICHIGAN, priority 2021, published 2024).

Usually DC50 stands for the concentration at which degradation of the target reaches its halfway point.

The target in one experiment is T1, ER (Homo sapiens, UniProt P03372).
T1 construct: host or cells: T47D and MCF7 human breast cancer cells
T1 sequence (P03372 1-595): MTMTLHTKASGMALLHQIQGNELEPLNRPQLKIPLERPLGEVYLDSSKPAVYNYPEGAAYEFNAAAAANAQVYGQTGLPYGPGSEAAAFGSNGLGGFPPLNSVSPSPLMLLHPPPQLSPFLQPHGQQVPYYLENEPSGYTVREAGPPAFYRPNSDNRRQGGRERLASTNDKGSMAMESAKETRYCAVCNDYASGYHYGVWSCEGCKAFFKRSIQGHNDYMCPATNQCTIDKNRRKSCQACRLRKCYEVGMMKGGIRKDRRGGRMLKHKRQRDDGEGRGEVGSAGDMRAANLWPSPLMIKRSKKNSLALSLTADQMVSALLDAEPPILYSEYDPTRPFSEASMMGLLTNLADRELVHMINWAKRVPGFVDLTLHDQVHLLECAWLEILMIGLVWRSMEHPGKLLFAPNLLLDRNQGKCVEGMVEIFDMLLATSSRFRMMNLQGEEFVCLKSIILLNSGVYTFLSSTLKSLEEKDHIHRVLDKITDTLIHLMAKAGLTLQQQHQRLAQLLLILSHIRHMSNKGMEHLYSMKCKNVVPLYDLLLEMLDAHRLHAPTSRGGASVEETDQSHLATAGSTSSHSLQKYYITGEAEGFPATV
Description: ER degradation activity, in-cell western blot analysis in T47D cells. The format is cell-based. Particulars: 16 hours, Table A does not say which cell line (T47D or MCF7), read-out: Potency (DC50). An outline of the steps: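 T47D cells grown in DMEM with 10% FBS were treated with compounds for 16 hours at 0.5% DMSO final. ER was detected by in-cell western using 680/800 near-infrared secondary antibodies. Residual ER is given as percent of untreated and DMSO-treated wells set to 100%.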
Turning to `C[C@@H]1Cc2c([nH]c3ccccc23)[C@@H](c2c(F)cc(N3CCC(CN4CC(N5Cc6cc7c(cc6C5)C(=O)N(C5CCC(=O)NC5=O)C7=O)C4)CC3)cc2F)N1CC(F)F` (stereo partly drawn) [E 123, 6-(1-((1-(4-((1R,3R)-2-(2,2-difluoroethyl)-3-methyl-2,3,4,9-tetrahydro-1H-pyrido[3,4-b]indol-1-yl)-3,5-difluorophenyl)piperidin-4-yl)methyl)azetidin-3-yl)-2-(2,6-dioxopiperidin-3-yl)-6,7-dihydropyrrolo[3,4-f]isoindole-1,3(2H,5H)-dione], the half-maximal degradation concentration (DC50) was in the range of 10 to 100 nM. On the same count and under the same terms, the same measure for `C[C@@H]1Cc2c([nH]c3ccccc23)[C@@H](c2c(F)cc(N3CCC(CN4CCC(N5Cc6cc7c(cc6C5)C(=O)N(C5CCC(=O)NC5=O)C7=O)CC4)CC3)cc2F)N1CC(F)F` (stereo partly drawn) [E 251, 6-(1-((1-(4-((1R,3R)-2-(2,2-difluoroethyl)-3-methyl-2,3,4,9-tetrahydro-1H-pyrido[3,4-b]indol-1-yl)-3,5-difluorophenyl)piperidin-4-yl)methyl)piperidin-4-yl)-2-(2,6-dioxopiperidin-3-yl)-6,7-dihydropyrrolo[3,4-f]isoindole-1,3(2H,5H)-dione]: < 10 nM; for `C[C@@H]1Cc2c([nH]c3ccccc23)[C@@H](c2c(F)cc(N3CCCC4(CCN(C(=O)CN5Cc6cc7c(cc6C5)C(=O)N(C5CCC(=O)NC5=O)C7)C4)C3)cc2F)N1CC(F)F` (stereo partly drawn) [E 67, 3-(6-(2-(7-(4-((1R,3R)-2-(2,2-difluoroethyl)-3-methyl-2,3,4,9-tetrahydro-1H-pyrido[3,4-b]indol-1-yl)-3,5-difluorophenyl)-2,7-diazaspiro[4.5]decan-2-yl)-2-oxoethyl)-1-oxo-3,5,6,7-tetrahydropyrrolo[3,4-f]isoindol-2(1H)-yl)piperidine-2,6-dione]: 10 to 100 nM; for `C[C@@H]1Cc2c([nH]c3ccccc23)[C@@H](c2c(F)cc(N3CCC(CC(=O)N4Cc5cc6c(cc5C4)C(=O)N(C4CCC(=O)NC4=O)C6)CC3)cc2F)N1CC(F)F` (stereo partly drawn) [E 104, 3-(6-(2-(1-(4-((1R,3R)-2-(2,2-difluoroethyl)-3-methyl-2,3,4,9-tetrahydro-1H-pyrido[3,4-b]indol-1-yl)-3,5-difluorophenyl)piperidin-4-yl)acetyl)-1-oxo-3,5,6,7-tetrahydropyrrolo[3,4-f]isoindol-2(1H)-yl)piperidine-2,6-dione]: > 100 nM. Same read-out and setting: the same measure for `C[C@@H]1Cc2c([nH]c3ccccc23)[C@@H](c2c(F)cc(-c3ccc(C(=O)N4CCC(N5Cc6cc7c(cc6C5)C(=O)N(C5CCC(=O)NC5=O)C7=O)CC4)cc3)cc2F)N1CC(F)F` (stereo partly drawn) [E 347, 6-(1-(4′-((1R,3R)-2-(2,2-difluoroethyl)-3-methyl-2,3,4,9-tetrahydro-1H-pyrido[3,4-b]indol-1-yl)-3′,5′-difluoro-[1,1′-biphenyl]-4-carbonyl)piperidin-4-yl)-2-(2,6-dioxopiperidin-3-yl)-6,7-dihydropyrrolo[3,4-f]isoindole-1,3(2H,5H)-dione]: < 10 nM; for `C[C@@H]1Cc2c([nH]c3ccccc23)[C@@H](c2c(F)cc(N3CCC(CN4CCC5(CCC(N6Cc7cc8c(cc7C6)C(=O)N(C6CCC(=O)NC6=O)C8=O)C5)CC4)CC3)cc2F)N1CC(F)F` (stereo partly drawn) [E 133, 6-(8-((1-(4-((1R,3R)-2-(2,2-difluoroethyl)-3-methyl-2,3,4,9-tetrahydro-1H-pyrido[3,4-b]indol-1-yl)-3,5-difluorophenyl)piperidin-4-yl)methyl)-8-azaspiro[4.5]decan-2-yl)-2-(2,6-dioxopiperidin-3-yl)-6,7-dihydropyrrolo[3,4-f]isoindole-1,3(2H,5H)-dione]: 10 to 100 nM; for `O=C1CCC(N2C(=O)c3cc4c(cc3C2=O)CN(CC(=O)N2CC3(C2)CN(c2ccc([C@@H]5c6ccc(O)cc6CC[C@@H]5c5ccccc5)cc2)C3)C4)C(=O)N1` (mixture of isomers) [E 8, 2-(2,6-dioxopiperidin-3-yl)-6-(2-(6-(4-((1R,2S)-6-hydroxy-2-phenyl-1,2,3,4-tetrahydronaphthalen-1-yl)phenyl)-2,6-diazaspiro[3.3]heptan-2-yl)-2-oxoethyl)-6,7-dihydropyrrolo[3,4-f]isoindole-1,3(2H,5H)-dione]: 10 to 100 nM. Still for that read-out and setting: for `C[C@@H]1Cc2cc(O)ccc2[C@@H](c2c(F)cc(N3CCC4(CCN(C(=O)CN5Cc6cc7c(cc6C5)C(=O)N(C5CCC(=O)NC5=O)C7=O)CC4)CC3)cc2F)N1CC(F)F` (stereo partly drawn) [E 320, 6-(2-(9-(4-((1S,3R)-2-(2,2-difluoroethyl)-6-hydroxy-3-methyl-1,2,3,4-tetrahydroisoquinolin-1-yl)-3,5-difluorophenyl)-3,9-diazaspiro[5.5]undecan-3-yl)-2-oxoethyl)-2-(2,6-dioxopiperidin-3-yl)-6,7-dihydropyrrolo[3,4-f]isoindole-1,3(2H,5H)-dione] the value was < 10 nM; for `C[C@@H]1Cc2c([nH]c3ccccc23)[C@@H](c2c(F)cc(N3CCC4(CCN(CC(=O)N5Cc6cc7c(cc6C5)C(=O)N(C5CCC(=O)NC5=O)C7)C4)CC3)cc2F)N1CC(F)F` (stereo partly drawn) [E 63, 3-(6-(2-(8-(4-((1R,3R)-2-(2,2-difluoroethyl)-3-methyl-2,3,4,9-tetrahydro-1H-pyrido[3,4-b]indol-1-yl)-3,5-difluorophenyl)-2,8-diazaspiro[4.5]decan-2-yl)acetyl)-1-oxo-3,5,6,7-tetrahydropyrrolo[3,4-f]isoindol-2(1H)-yl)piperidine-2,6-dione], < 10 nM.

Staying with this experiment, now noted: compounds 16 hours, Table A does not say whether T47D or MCF7, read-out: Potency (DC50).
For `C[C@@H]1Cc2c([nH]c3ccccc23)[C@@H](c2cnc(N3CC4(CCC(CN5Cc6cc7c(cc6C5)C(=O)N(C5CCC(=O)NC5=O)C7=O)CC4)C3)nc2)N1CC(F)F` (stereo partly drawn) [E 472, 6-((2-(5-((1R,3R)-2-(2,2-difluoroethyl)-3-methyl-2,3,4,9-tetrahydro-1H-pyrido[3,4-b]indol-1-yl)pyrimidin-2-yl)-2-azaspiro[3.5]nonan-7-yl)methyl)-2-(2,6-dioxopiperidin-3-yl)-6,7-dihydropyrrolo[3,4-f]isoindole-1,3(2H,5H)-dione], the half-maximal degradation concentration (DC50) was 10 to 100 nM. With `C[C@@H]1Cc2c(ccc3[nH]ncc23)[C@@H](c2c(F)cc(NC3CN(C(=O)[C@H]4CC[C@@H](N5Cc6cc7c(cc6C5)C(=O)N(C5CCC(=O)NC5=O)C7=O)CC4)C3)cc2F)N1CC(F)F` (stereo partly shown) [E 424], the DC50 fell in the range of 10 to 100 nM.

In the case of `C[C@@H]1Cc2cc(O)ccc2[C@@H](c2c(F)cc(OC3CC4(CCN(C(=O)CN5Cc6cc7c(cc6C5)C(=O)N(C5CCC(=O)NC5=O)C7=O)CC4)C3)cc2F)N1CC(F)F` (stereo partly drawn) [E 455, 6-(2-(2-(4-((1S,3R)-2-(2,2-difluoroethyl)-6-hydroxy-3-methyl-1,2,3,4-tetrahydroisoquinolin-1-yl)-3,5-difluorophenoxy)-7-azaspiro[3.5]nonan-7-yl)-2-oxoethyl)-2-(2,6-dioxopiperidin-3-yl)-6,7-dihydropyrrolo[3,4-f]isoindole-1,3(2H,5H)-dione], the DC50 fell in the range of 10 to 100 nM. Consider `COc1cc([C@H]2CC[C@H](C(=O)N3CCC(N4Cc5cc6c(cc5C4)C(=O)N(C4CCC(=O)NC4=O)C6=O)CC3)CC2)ccc1[C@@H]1c2[nH]c3ccccc3c2C[C@@H](C)N1CC(F)F` (stereo partly drawn) [E 403, 6-(1-((1R,4r)-4-(4-((1R,3R)-2-(2,2-difluoroethyl)-3-methyl-2,3,4,9-tetrahydro-1H-pyrido[3,4-b]indol-1-yl)-3-methoxyphenyl)cyclohexane-1-carbonyl)piperidin-4-yl)-2-(2,6-dioxopiperidin-3-yl)-6,7-dihydropyrrolo[3,4-f]isoindole-1,3(2H,5H)-dione], for which the DC50 was in the range of 10 to 100 nM.
